US20200405715A1, “COMPOSITIONS AND METHODS FOR TREATING CANCER AND INFLAMMATORY DISEASES” (University of Pittsburgh - Of the Commonwealth System of …, priority 2016, published 2020)

Columns and labels:
HepG2 tumor implants = HepG2 tumor implants in nude mice, tumor growth; assay type: in vivo, athymic nude mice; details: compounds in drinking water (15 mg/kg/d), start at tumor size 0.1 cm^3 (FIG. 8)
Procedure: Mice were implanted with HepG2 cells (10^6 cells) through subcutaneous injection. 2 weeks later, once tumor size reaches ˜0.1 cm^3, mice were randomized and the treatment began by adding compounds to the drinking water ([…]). Tested compounds were: Vehicle, 3-(decylamino)-5-phenylcyclohex-2-en-1-one (BC1558), 3-(dibenzylamino)-5-phenylcyclohex-2-en-1-one (BC1634) or 3-((4-phenoxybenzyl)amino)-5-phenylcyclohex-2-en-1-one (BC1653). Tumor volume measurements over time were graphed (n=4-5 mice/group, *P<0.05 versus Vehicle).
As a complementary in vivo model, tumorogenicity was further assessed after implanting HepG2 cells along with 3-(decylamino)-5-phenylcyclohex-2-en-1-one, 3-(dibenzylamino)-5-phenylcyclohex-2-en-1-one, 3-((4-phenoxybenzyl)amino)-5-phenylcyclohex-2-en-1-one treatment in athymic nude mice. Mice were implanted with HepG2 cells through subcutaneous injection. Two weeks later, once tumor size reached 0.1 cm^3, the mice were randomized and the treatment began by adding compounds to the drinking water (15 mg/kg/d).

[1] = system: SCF substrates p27, NRF2 and CDT1; experiment: SCF substrates, protein immunoblotting in HepG2 cells; assay type: cell-based; details: 10 μM, various times (FIG. 6A)
PBMC cells = experiment: LPS-induced TNF release from PBMC cells (ELISA); assay type: cell-based; details: various concentrations for 2 h, then LPS (10 ng/ml) for 12 h (FIG. 10A)
Procedure: Cells were then treated with LPS (10 ng/ml) for additional 2 h. Media were then collected and TNF concentration was determined by ELISA. […] Lung tissue was collected and assayed for immunoblotting. Culture media was collected and assayed for cytokines.
Since SCF machinery is believed to be essential for NF-kB activation, it was investigated whether the DCN1 inhibitors could affect inflammation. 3-(decylamino)-5-phenylcyclohex-2-en-1-one was first tested in PBMCs cells. Briefly, PBMC cells were treated with 3-(decylamino)-5-phenylcyclohex-2-en-1-one at various concentrations for 2 h before exposed to LPS (10 ng/ml) for 12 h.

HepG2 cells = experiment: Cell cycle analysis by BrdU uptake and 7-AAD staining; assay type: cell-based
Procedure: HepG2 cells were treated with 3-(decylamino)-5-phenylcyclohex-2-en-1-one for 36 h with various concentrations. Cells were then analyzed by BrdU uptake and 7-AAD staining, G0, G1, S, G2/M phase cells were then quantitated and graphed. […] Confluent monolayers of HepG2 cells were injured and cellular migration into the wound was determined under vehicle or 3-(decylamino)-5-phenylcyclohex-2-en-1-one treated condition. 36 h later cells were then observed under white field microscopy and recovery of cells to wound heal was quantified and graphed (right).
HepG2 cells were treated with 3-(decylamino)-5-phenylcyclohex-2-en-1-one at 10 μM for various times. At each time point, cells were analyzed by BrdU uptake and 7-AAD staining, G0, G1, S, G2/M phase cells were then quantitated and graphed. […] Cells were then observed under white field microscopy.

For `CCCCCCCCCCNC1=CC(=O)CC(c2ccccc2)C1` (stereo not shown) [BC1558, 3-(decylamino)-5-phenylcyclohex-2-en-1-one], the “tumor size compared to the vehicle” value (HepG2 tumor implants) was “Significantly reduced tumor size”, the “SCF substrates p27, NRF2 and CDT1” value [1] was “increased” and the “LPS-induced TNF release from PBMC cells” value (PBMC cells) was “potently inhibited”. For the same molecule, the “G0 and G2/M phases” value (HepG2 cells; 10 μM, at 16 h (FIG. 6B)) was “increased”, the S phase (HepG2 cells; 10 μM, at 16 h (FIG. 6B)) was “effectively decreased” and the “G0 and G2/M phases” value (HepG2 cells; 36 h, dose dependent (FIG. 5B)) was “increased”. The S phase (HepG2 cells; 36 h, dose dependent (FIG. 5B)) was “effectively decreased”.
